The results in this text go back to patent US7902234B2, “Thiadiazoline derivative” (Kyowa Hakko Kirin Co., Ltd., priority 2001, dated 2011).

The subject of this experiment is HCT 116 cells. As to the kind of experiment: Antiproliferative activity in HCT 116 human colon cancer cells (XTT). To be noted: 72 hours incubation with compound, XTT absorbance 490 nm minus 655 nm, read-out: GI50 (concentration of 50% proliferation inhibition). The format is cell-based. The method, then:
HCT 116 cells (ATCC No.: CCL-247) were placed on a 96-well microliter plate (Nunc, 167008) at a density of 1×10^3 cells/well. The plate was incubated in a 5% CO2 incubator at 37° C. for 24 hours, and then to the plate was added test compounds diluted stepwise to […] in total, and the plate was further incubated in a 5% CO2 incubator at 37° C. for 72 hours. To the culture medium, the XTT (sodium 3′-[1-(phenylaminocarbonyl)-3,4-tetrazolium)-bis(4-methoxy-6-nitro)benzenesulfonic acid hydrate) labeling mixture (Roche Diagnostics, 1465015) was dispensed in […] portions, then the plate was incubated in a 5% CO2 incubator at 37° C. for 1 hour, and the absorbance was measured at 490 nm and 655 nm with a microplate spectrophotometer (Bio-Rad, Model 550). The inhibitory activity against cell proliferation was shown as a concentration of 50% proliferation inhibition, GI50.
GI50 calculation method: The value (difference in absorbance) was calculated by subtracting the absorbance at 655 nm from the absorbance at 490 nm of each well. […]
(In general: Tetrazolium assays rely on reduction of a dye to a coloured formazan, in cell work by metabolically active cells.)

For `CC(=O)NC1=NN(C(C)=O)C(C)(c2ccccc2)S1` (centres unmarked) [Compound 1], the GI50 worked out at 1000 nM. The figure for `CC(=O)N(C)C1=NN(C(C)=O)C(C)(c2ccccc2)S1` (centres unmarked) [Compound 7] is 480 nM.
